From patent US9593149B2, “Amylin and calcitonin receptor agonist” (Novo Nordisk A/S, priority 2014, dated 2017)
≈ marks a conversion by molar mass, not a printed value. Numbered stars: 1 amine (or outer) side, 2 acyl side, 3 side chain; on linkers, the order of the positions; unused ones are H or OH. Peptide text beside a SMILES is read from it. * marks the point of attachment. C18 diacid = O=C(O)CCCCCCCCCCCCCCCCC(=O)*; γGlu = O=C(O)[C@H](CCC(=O)[*:2])N[*:1]; C14 diacid = O=C(O)CCCCCCCCCCCCC(=O)*

Test: Assay (IV) determination of solubility
Type: physicochemical
Experimental: Assay (IV)—Determination of Solubility
The mimylin peptide was dissolved in water at ˜500 nmol/ml and mixed 1:1 with a series of buffers (100 mM glycylglycine pH 3.0, 100 mM glycylglycine pH 4.0, 100 mM glycylglycine pH 5.0, 100 mM bistrispropane pH 6.0, 100 mM bistrispropane pH 6.5, 100 mM bistrispropane pH 7.0, 100 mM bistrispropane pH 7.5, 100 mM bistrispropane pH 8.0).

| Solubility (pH 3.0) | Solubility (pH 4.0) | Solubility (pH 5.0) | Solubility (pH 6.0) | Solubility (pH 6.5) | Solubility (pH 7.0) | Solubility (pH 7.5) | Solubility (pH 8.0) | solubility at 18 h (pH 4.0) | solubility at 18 h (pH 5.0) | Compound |
| --- | --- | --- | --- | --- | --- | --- | --- | --- | --- | --- |
| ≧200 μM | ≧200 μM | ≧200 μM | ≧200 μM | ≧200 μM | ≧200 μM | ≧200 μM | ≧200 μM | – | – | CC(C)C[C@H](NC(=O)[C@H](C)NC(=O)[C@H](C)NC(=O)[C@@H](NC(=O)[C@H](Cc1cnc[nH]1)NC(=O)[C@H](CC(C)C)NC(=O)[C@H](CCC(=O)O)NC(=O)[C@H](CO)NC(=O)[C@H](C)NC(=O)[C@H](CCC(=O)O)NC(=O)CCCCCCCCCCCCCCCCC(=O)O)[C@@H](C)O)C(=O)NCC(=O)N[C@@H](CCCNC(=N)N)C(=O)N[C@@H](CC(C)C)C(=O)N[C@@H](CO)C(=O)N[C@@H](C)C(=O)N[C@@H](CCC(=O)O)C(=O)N[C@@H](CC(C)C)C(=O)N[C@@H](Cc1cnc[nH]1)C(=O)N[C@@H](CCC(=O)O)C(=O)N[C@@H](CC(C)C)C(=O)N[C@@H](C)C(=O)N[C@H](C(=O)N[C@@H](CC(C)C)C(=O)N1CCC[C@H]1C(=O)N[C@@H](CCCNC(=N)N)C(=O)N[C@H](C(=O)N[C@@H](CCC(=O)O)C(=O)N[C@H](C(=O)NCC(=O)N1CCC[C@H]1C(=O)N[C@@H](CCC(=O)O)C(=O)N[C@@H](CO)C(=O)N1CCC[C@H]1C(N)=O)[C@@H](C)O)[C@@H](C)O)[C@@H](C)O [compound 16, [N-terminal(C18 diacid), 6H]mimylin] ({C18 diacid}-EASELHTAALGRLSAELHELATLPRTETGPESP-NH2) |
| ≧200 μM | ≧200 μM | ≧200 μM | ≧200 μM | ≧200 μM | ≧200 μM | ≧200 μM | ≧200 μM | – | – | CC(C)C[C@H](NC(=O)[C@H](C)NC(=O)[C@H](C)NC(=O)[C@@H](NC(=O)[C@H](CO)NC(=O)[C@H](Cc1cnc[nH]1)NC(=O)[C@H](CCC(=O)O)NC(=O)[C@H](CO)NC(=O)[C@H](C)NC(=O)[C@H](CCC(=O)O)NC(=O)CCCCCCCCCCCCCCCCC(=O)O)[C@@H](C)O)C(=O)NCC(=O)N[C@@H](CCCNC(=N)N)C(=O)N[C@@H](CC(C)C)C(=O)N[C@@H](CO)C(=O)N[C@@H](C)C(=O)N[C@@H](CCC(=O)O)C(=O)N[C@@H](CC(C)C)C(=O)N[C@@H](Cc1cnc[nH]1)C(=O)N[C@@H](CCC(=O)O)C(=O)N[C@@H](CC(C)C)C(=O)N[C@@H](C)C(=O)N[C@H](C(=O)N[C@@H](CC(C)C)C(=O)N1CCC[C@H]1C(=O)N[C@@H](CCCNC(=N)N)C(=O)N[C@H](C(=O)N[C@@H](CCC(=O)O)C(=O)N[C@H](C(=O)NCC(=O)N1CCC[C@H]1C(=O)N[C@@H](CCC(=O)O)C(=O)N[C@@H](CO)C(=O)N1CCC[C@H]1C(N)=O)[C@@H](C)O)[C@@H](C)O)[C@@H](C)O [compound 17, [N-terminal(C18 diacid), 5H]mimylin] ({C18 diacid}-EASEHSTAALGRLSAELHELATLPRTETGPESP-NH2) |
| ≧200 μM | ≧200 μM | ≧200 μM | ≧200 μM | ≧200 μM | ≧200 μM | ≧200 μM | ≧200 μM | – | – | CC(C)C[C@H](NC(=O)[C@H](C)NC(=O)[C@H](C)NC(=O)[C@@H](NC(=O)[C@H](CO)NC(=O)[C@H](CC(C)C)NC(=O)[C@H](CCC(=O)O)NC(=O)[C@H](CO)NC(=O)[C@H](C)NC(=O)[C@H](CCC(=O)O)NC(=O)CCCCCCCCCCCCCCCCC(=O)O)[C@@H](C)O)C(=O)NCC(=O)N[C@@H](CCCNC(=N)N)C(=O)N[C@@H](CC(C)C)C(=O)N[C@@H](CO)C(=O)N[C@@H](C)C(=O)N[C@@H](CCC(=O)O)C(=O)N[C@@H](CC(C)C)C(=O)N[C@@H](Cc1cnc[nH]1)C(=O)N[C@@H](CCC(=O)O)C(=O)N[C@@H](CC(C)C)C(=O)N[C@@H](C)C(=O)N[C@H](C(=O)N[C@@H](CC(C)C)C(=O)N1CCC[C@H]1C(=O)N[C@@H](CCCNC(=N)N)C(=O)N[C@H](C(=O)N[C@@H](CCC(=O)O)C(=O)N[C@H](C(=O)NCC(=O)N1CCC[C@H]1C(=O)N[C@@H](CCC(=O)O)C(=O)N[C@@H](Cc1cnc[nH]1)C(=O)N1CCC[C@H]1C(N)=O)[C@@H](C)O)[C@@H](C)O)[C@@H](C)O [compound 18, [N-terminal(C18 diacid), 32H]mimylin] ({C18 diacid}-EASELSTAALGRLSAELHELATLPRTETGPEHP-NH2) |
| ≧200 μM | ≧200 μM | ≧200 μM | ≧200 μM | ≧200 μM | ≧200 μM | ≧200 μM | ≧200 μM | – | – | CC(C)C[C@H](NC(=O)[C@H](C)NC(=O)[C@H](C)NC(=O)[C@@H](NC(=O)[C@H](CO)NC(=O)[C@H](CC(C)C)NC(=O)[C@H](CCC(=O)O)NC(=O)[C@H](CO)NC(=O)[C@H](C)NC(=O)CC[C@H](NC(=O)CCCCCCCCCCCCC(=O)O)C(=O)O)[C@@H](C)O)C(=O)NCC(=O)N[C@@H](CCCNC(=N)N)C(=O)N[C@@H](CC(C)C)C(=O)N[C@@H](CO)C(=O)N[C@@H](C)C(=O)N[C@@H](CCC(=O)O)C(=O)N[C@@H](CC(C)C)C(=O)N[C@@H](Cc1cnc[nH]1)C(=O)N[C@@H](CCC(=O)O)C(=O)N[C@@H](CC(C)C)C(=O)N[C@@H](C)C(=O)N[C@H](C(=O)N[C@@H](CC(C)C)C(=O)N1CCC[C@H]1C(=O)N[C@@H](CCCNC(=N)N)C(=O)N[C@H](C(=O)N[C@@H](CCC(=O)O)C(=O)N[C@H](C(=O)NCC(=O)N1CCC[C@H]1C(=O)N[C@@H](CCC(=O)O)C(=O)N[C@@H](CO)C(=O)N1CCC[C@H]1C(N)=O)[C@@H](C)O)[C@@H](C)O)[C@@H](C)O [compound 19, [N-terminal(C14 diacid-gGlu), des1]mimylin] ({C14 diacid-γGlu}-ASELSTAALGRLSAELHELATLPRTETGPESP-NH2) |

The remaining lines, values behind:

| Compound | Solubility (pH 3.0) | Solubility (pH 4.0) | Solubility (pH 5.0) | Solubility (pH 6.0) | Solubility (pH 6.5) | Solubility (pH 7.0) | Solubility (pH 7.5) | Solubility (pH 8.0) | solubility at 18 h (pH 4.0) | solubility at 18 h (pH 5.0) |
| --- | --- | --- | --- | --- | --- | --- | --- | --- | --- | --- |
| CC(C)C[C@H](NC(=O)[C@H](C)NC(=O)[C@H](C)NC(=O)[C@@H](NC(=O)[C@H](CO)NC(=O)[C@H](CC(C)C)NC(=O)[C@H](CCC(=O)O)NC(=O)[C@H](CO)NC(=O)[C@H](C)NC(=O)CC[C@H](NC(=O)CCCCCCCCCCCCCCCCC(=O)O)C(=O)O)[C@@H](C)O)C(=O)NCC(=O)N[C@@H](CCCNC(=N)N)C(=O)N[C@@H](CC(C)C)C(=O)N[C@@H](CO)C(=O)N[C@@H](C)C(=O)N[C@@H](CCC(=O)O)C(=O)N[C@@H](CC(C)C)C(=O)N[C@@H](Cc1cnc[nH]1)C(=O)N[C@@H](CCC(=O)O)C(=O)N[C@@H](CC(C)C)C(=O)N[C@@H](C)C(=O)N[C@H](C(=O)N[C@@H](CC(C)C)C(=O)N1CCC[C@H]1C(=O)N[C@@H](CCCNC(=N)N)C(=O)N[C@H](C(=O)N[C@@H](CCC(=O)O)C(=O)N[C@H](C(=O)NCC(=O)N[C@@H](CO)C(=O)N[C@@H](CCC(=O)O)C(=O)N[C@@H](CO)C(=O)N1CCC[C@H]1C(N)=O)[C@@H](C)O)[C@@H](C)O)[C@@H](C)O [compound 23, [N-terminal(C18 diacid-gGlu), des1, 30S]mimylin] ({C18 diacid-γGlu}-ASELSTAALGRLSAELHELATLPRTETGSESP-NH2) | ≧200 μM | ≧200 μM | ≧200 μM | ≧200 μM | ≧200 μM | ≧200 μM | ≧200 μM | ≧200 μM | – | – |
| CC(C)C[C@H](NC(=O)[C@H](CCC(=O)O)NC(=O)[C@H](Cc1cnc[nH]1)NC(=O)[C@H](CC(C)C)NC(=O)[C@H](CCC(=O)O)NC(=O)[C@H](C)NC(=O)[C@H](CO)NC(=O)[C@H](CC(C)C)NC(=O)[C@H](CCCNC(=N)N)NC(=O)CNC(=O)[C@H](CC(C)C)NC(=O)[C@@H](NC(=O)[C@H](C)NC(=O)[C@@H](NC(=O)[C@H](CO)NC(=O)[C@@H](NC(=O)[C@H](CCC(=O)O)NC(=O)[C@H](CO)NC(=O)[C@H](C)NC(=O)[C@H](CCC(=O)O)NC(=O)CCCCCCCCCCCCCCCCC(=O)O)C(C)C)[C@@H](C)O)C(C)C)C(=O)N[C@@H](C)C(=O)N[C@H](C(=O)N[C@@H](CC(C)C)C(=O)N1CCC[C@H]1C(=O)N[C@@H](CCCNC(=N)N)C(=O)N[C@H](C(=O)N[C@@H](CCC(=O)O)C(=O)N[C@H](C(=O)NCC(=O)N1CCC[C@H]1C(=O)N[C@@H](CCC(=O)O)C(=O)N[C@@H](CO)C(=O)N1CCC[C@H]1C(N)=O)[C@@H](C)O)[C@@H](C)O)[C@@H](C)O [compound 24, [N-terminal(C18 diacid), 5V, 9V]mimylin] ({C18 diacid}-EASEVSTAVLGRLSAELHELATLPRTETGPESP-NH2) | ≧200 μM | – | – | ≧200 μM | ≧200 μM | ≧200 μM | ≧200 μM | ≧200 μM | 150 µM (≈ 562 µg/mL) | 145 µM (≈ 543 µg/mL) |
| CC(C)C[C@H](NC(=O)[C@H](C)NC(=O)[C@@H](NC(=O)[C@H](CO)NC(=O)[C@H](CC(C)C)NC(=O)[C@H](CCC(=O)O)NC(=O)[C@H](CO)NC(=O)[C@H](C)NC(=O)[C@H](CCC(=O)O)NC(=O)CCCCCCCCCCCCCCCCC(=O)O)[C@@H](C)O)C(=O)N[C@@H](C)C(=O)NCC(=O)N[C@@H](CCCNC(=N)N)C(=O)N[C@@H](CC(C)C)C(=O)N[C@@H](CO)C(=O)N[C@@H](C)C(=O)N[C@@H](CCC(=O)O)C(=O)N[C@@H](CC(C)C)C(=O)N[C@@H](Cc1cnc[nH]1)C(=O)N[C@@H](CCC(=O)O)C(=O)N[C@@H](CC(C)C)C(=O)N[C@@H](C)C(=O)N[C@H](C(=O)N[C@@H](CC(C)C)C(=O)N1CCC[C@H]1C(=O)N[C@@H](CCCNC(=N)N)C(=O)N[C@H](C(=O)N[C@@H](CCC(=O)O)C(=O)N[C@H](C(=O)NCC(=O)N1CCC[C@H]1C(=O)N[C@@H](CCC(=O)O)C(=O)N[C@@H](CO)C(=O)N1CCC[C@H]1C(N)=O)[C@@H](C)O)[C@@H](C)O)[C@@H](C)O [compound 27, [N-terminal(C18 diacid), 9L, 10A]mimylin] ({C18 diacid}-EASELSTALAGRLSAELHELATLPRTETGPESP-NH2) | ≧200 μM | ≧200 μM | ≧200 μM | ≧200 μM | ≧200 μM | ≧200 μM | ≧200 μM | ≧200 μM | – | – |
